These results are taken from patent US6566371B2, “Intraperitoneal administration of adenosine for the treatment of prevention of gastrointestinal of systemic diseases” (University of Pittsburgh, priority 2000, dated 2003).

Data set [1] relates to anesthetized rats with mesenteric vasoconstriction induced by angiotensin II plus methoxamine. Briefly: Intraperitoneal lavage with adenosine during intramesenteric artery infusion of angiotensin II plus methoxamine (Example 1). Type of data set: in vivo, Sprague-Dawley rats.
The conditions of data set [2]: rat, in vivo.
Protocol: (§1) In all the examples adult male Sprague-Dawley rats were purchased from Charles River Laboratories (Wilmington, Mass.) and maintained in the University of Pittsburgh Animal Facility (Pittsburgh, Pa.). Rats were provided free access to Prolab Isopro RMH 3000 rodent diet (PMI Nutrition Intl., Richmond, Ind.) and tap water. Light cycle, relative humidity and room temperature were 7:00 AM to 7:00 PM, 55% and 22° C., respectively. Animals weighed 357±11 (mean±SEM) grams at the time of study.
(§2) Rats (n=5) were anesthetized and body temperature monitored and maintained as described for Example 1. The trachea was cannulated with PE-240 and a PE-50 catheter was inserted into the right jugular vein and an intravenous infusion of 0.9% saline was initiated at 50 μl/min. A femoral artery catheter (PE-50) was inserted and was connected to a digital blood pressure analyzer for continuous measurement of MABP and heart rate. Next, microdialysis probes (CMA/20 microdialysis probe 4 mm, Bioanalytical Systems, Inc., West Lafayette, Ind.) were inserted into the aortic arch (via the left carotid artery) and mesenteric vein. Microdialysis probes were perfused with 0.9% saline at 2 μl/min, and the dialysate exiting the probes was collected in a freezing apparatus. As in Example 1, a basin was constructed from the abdominal wall to create a bowl containing the viscera. However, unlike Example 1, instead of intermittent lavage with fresh solutions, the abdominal basin was continuously perfused with Tyrode's solution (5 ml/min) (Mi, Z., et al., J. Pharmacol. Exp. Ther. 287:926 (1998), the disclosure of which is incorporated herein by reference) that was maintained at 37° C. by a heated water bath. Thus, the viscera were submerged completely in Tyrode's solution that was constantly being replaced. After a 20-minute stabilization period, dialysate from the microdialysis probes was collected for 20 minutes. Next, the Tyrode's solution perfusing the peritoneal cavity was switched to prewarmed Tyrode's containing 10^−5 M adenosine (Sigma). After 10 minutes, the dialysate was collected for another 20 minutes. This procedure was repeated two more times as the concentration of adenosine was increased to 10^−4 M and finally to 10^−3 M. To determine whether AMP would behave as a “prodrug” for the delivery of adenosine, after a 20 minute washout period, the entire protocol was repeated with AMP (10^−5 M, 10^−4 M and 10^−3 M) (Sigma).
(§3) Statistical Analysis: Data were analyzed in this example by repeated measures 1-factor analysis of variance. […] Statistical analyses were conducted with NCSS software (Version 6.0; Kaysville, Utah), and the criterion of significance was p<0.05.
(§4) Sample Analysis: Levels of adenosine and its metabolites, inosine, hypoxanthine and xanthine, in the dialysate samples in this example were measured using an Isco (Lincoln, Nebr.) high-pressure liquid chromatographic system (pump model 2350, gradient programmer model 2360, 4.6×250-mm C18 column) with UV detection as described by Mi, Z., et al., J. Pharmacol. Exp. Ther. 273:728 (1995). The chromatography data system was JCL 6000 for Windows (Jones Chromatography LTD., Lakewood, Colo.).
The test system of data set [3] is rats subjected to hemorrhagic shock. Nature of the data set: Hemorrhagic shock and resuscitation with continuous peritoneal lavage (Example 3). Type of data set: in vivo, Sprague-Dawley rats. How it is done:
The methods of the present invention are illustrated in more detail below. […] In a second study, microdialysis probes were placed in the mesenteric vein and aortic arch of rats, and the peritoneal cavity was continuously ravaged with adenosine or AMP solutions. In a third study, rats were subjected to hemorrhagic shock (2.75 ml of blood removed per 100 grams of body weight over a 15 minute period) for two hours, followed by volume resuscitation for one hour and observation for 72 hours. Rats received peritoneal lavage with adenosine or vehicle (0.9% saline) beginning 20 minutes after blood withdrawal and continuing through the one hour resuscitation period.
Hemorrhagic shock was induced by removing 2.75 ml of blood per 100 grams of body weight over a 15 minute period. Two hours after blood withdrawal, the animals were resuscitated by reinfusing the withdrawn blood and restoring and maintaining a normal blood pressure for one hour by infusing Ringer's solution (Baxter, Deerfield, Ill.) as needed. Beginning 20 minutes after blood withdrawal and continuing for one hour after reinfusion of the withdrawn blood, rats received either continuous peritoneal lavage with adenosine (10^−4 M) or 0.90% saline.

Data set [4] is described as follows: Microdialysis of mesenteric vein and aortic arch during continuous peritoneal lavage with adenosine or AMP (Example 2).
Protocol: as §1, §2, §3, §4
[5] abbreviates: Group 2, period 7, 10^-3 M adenosine in peritoneal lavage fluid.
[6] abbreviates: continuous peritoneal lavage with adenosine 10^-4 M.
Setting [7] is: continuous peritoneal lavage with 10^-3 M.

Where two headings read alike, the source gives them in different places.

On to `Nc1ncnc2c1ncn2[C@@H]1O[C@H](CO)[C@@H](O)[C@H]1O` [adenosine], for which the heart rate result in data set [1] (Group 2, increasing adenosine 10^-7 to 10^-3 M in lavage) is “not significantly different among the seven experimental periods”. Besides, in data set [1] (setting [5]), the “MBF compared with period 1 (no infusion, no adenosine)” value is recorded as “not significantly different than the MBF during period 1” and the “MBF compared with period 2 (vasoconstrictors, no adenosine)” value is “significantly greater than the MBF during period 2”. Also, the “mesenteric blood flow (MBF)” value in data set [1] (Group 2, periods 3-6, adenosine 10^-7 M to 10^-4 M in peritoneal lavage fluid, intermittent lavage) is listed as “remained significantly depressed”. For the same compound, the “heart rate (bradycardia)” value in data set [1] (Group 3, 10^-3 M adenosine in peritoneal lavage fluid) was “did not cause bradycardia”. For the same compound, in data set [1] (Group 3, 10^-3 M adenosine, period 4 and period 5), the MABP result was “very slight and transient increase”. In data set [1] (Group 3, by period 7, fixed 10^-3 M adenosine in peritoneal lavage fluid), the “MBF compared with period 1” value is given as “no longer significantly different compared with experimental period 1”. In addition, the “MBF compared with period 2” value in data set [1] (Group 3, periods 3-7, fixed 10^-3 M adenosine in peritoneal lavage fluid) is “significantly greater than MBF during period 2”. In data set [1] (peritoneal lavage with adenosine, p<0.05), the “mesenteric blood flow (summary)” value is recorded as “normalized mesenteric blood flow”. Besides, in data set [2] (male, Sprague-Dawley), the “adenosine level in dialysate exiting mesenteric vein microdialysis catheter” value amounted to 2.17 ± 0.60 µM, the “hypoxanthine level in dialysate exiting mesenteric vein microdialysis catheter” value is 0.18 ± 0.04 µM, the “inosine level in dialysate exiting mesenteric vein microdialysis catheter” value amounted to 1.03 ± 0.32 µM and the “xanthine level in dialysate exiting mesenteric vein microdialysis catheter” value stood at 0.26 ± 0.06 µM. Besides, in data set [2], the MABP was determined as 108±4 mm Hg; the heart rate was 362±14 beats/min; the “levels of adenosine, inosine, hypoxanthine or xanthine in the aorta (dialysate)” value was “did not significantly alter”; the “levels of adenosine, inosine, hypoxanthine or xanthine in the mesenteric vein (dialysate)” value is given as “did not significantly alter”. Further, in data set [3] (setting [6]), the “arterial pH vs vehicle-treated group” value was “significantly (p<0.05) higher”, the “blood urea nitrogen vs vehicle-treated group” value is listed as “significantly (p<0.05) lower”, the “plasma level of lactate vs vehicle-treated group” value is “significantly (p<0.05) lower” and the “plasma level of potassium vs vehicle-treated group” value is listed as “significantly (p<0.05) lower”. Also, the “survival to 72 hours” value in data set [3] (continuous peritoneal lavage with adenosine 10^-4 M, vehicle 4 of 10, p<0.05) is 9 of 10. The “MABP and heart rate vs vehicle-treated group” value in data set [3] (during hemorrhagic shock and resuscitation, adenosine 10^-4 M lavage) is on record as “similar”.
`Nc1ncnc2c1ncn2[C@@H]1O[C@H](COP(=O)(O)O)[C@@H](O)[C@H]1O` [AMP, adenosine-5′-monophosphate]: in data set [4] (setting [7]), the “purine levels in the aorta” value is “not in the aorta” and the “purine levels in the mesenteric vein” value is reported as “increased purine levels in the mesenteric vein”. This compound registered an MABP in data set [4] (during 10^-3 M in continuous peritoneal lavage, basal 113±5 (adenosine), 112±4 (AMP), not significantly affected) of 117±7 mm Hg. This compound registered a heart rate in data set [4] (during 10^-3 M in continuous peritoneal lavage, basal 351±15 (adenosine), 357±17 (AMP), not significantly affected) of 366±22 beats/min.
